Data taken from patent US9623123B2, “Fluorescent conjugated polymers with a bodipy-based backbone and uses thereof” (Michigan Technological University, priority 2008, dated 2017).

How the values were obtained:
[1] = UV-visible absorption and fluorescence spectra, fluorescence quantum yields in solution; assay type: physicochemical
Experimental: ^1H NMR and ^13C NMR spectra were taken on a 400 MHz Varian Unity Inova spectrophotometer instrument. ^1H and ^13C NMR spectra were recorded in CDCl3, chemical shifts (δ) are given in ppm relative to solvent peaks (1H: δ 7.26; 13C: δ 77.3) as internal standard. UV spectra were taken on a Hewlett Packard 8452A Diode Array UV-visible spectrophotometer. Fluorescence spectra were recorded on a Spex Fluorolog 1681 0.22 m steady-state fluorometer. Fluorescence quantum yields of BODIPY dyes and polymers were measured in methylene chloride and DMF, and calculated by using fluorescein excited at 490 nm in 0.1 N NaOH as the reference absolute quantum efficiency (φn=85%). Molecular weights of the polymers were determined by gel permeation chromatography (“GPC”) by using a Waters Associates Model 6000A liquid chromatograph. Three American Polymer Standards Corp. Ultrastyragel columns in series with porosity indices of 10^3, 10^4, and 10^5 Å were used and housed in an oven thermostated at 30° C. Mobile phase was HPLC grade THF which was filtered and degassed by vacuum filtration through a 0.5 μm fluoropore filter prior to use. The polymers were detected by a Waters Model 440 ultraviolet absorbance detector at a wavelength of 254 nm and a Waters Model 2410 refractive index detector. Molecular weights were measured relative to polystyrene standards. An Enraf Nonius CAD-4 X-Ray diffractometer was used in the crystal structure determination. The windows program WinGX was used as the interface for the solution and refinement of the model. The data were first reduced and corrected for absorption using the psi-scans, and then solved using the program SIR2004. The model was refined using SHELXL97.
(§1) ^1H NMR and ^13C NMR spectra were taken on a 400 MHz Varian Unity Inova spectrophotometer instrument. ^1H and ^13C NMR spectra were recorded in CDCl3, and chemical shifts (5) are given in ppm relative to solvent peaks (at 7.24 ppm for ^1H spectra and at 77.3 for ^13C spectra) as internal standard. UV spectra were taken on a Hewlett-Packard 8452A Diode Array UV-visible spectrophotometer. Fluorescence spectra were recorded on a Spex Fluorolog 1681 0.22 m steady-state fluorometer. Fluorescence quantum yields of BODIPY dyes and polymers were measured in methylene chloride and calculated by using fluorescein excited at 490 nm in 0.1 N NaOH as the reference (its quantum efficiency of 85%). Fluorescence lifetimes were measured on a GL-3300 Nitrogen Laser laserstrobe PTI instrument and analyzed using FeliX32 software.
^1H NMR and ^13C NMR spectra were taken on a 400 MHz Varian Unity Inova spectrophotometer instrument. ^1H and ^13C NMR spectra were recorded in CDCl3, chemical shifts (δ) are given in ppm relative to solvent peaks (^1H: δ 7.26; ^13C: δ 77.3) as internal standard. UV spectra were taken on a Hewlett Packard 8452A Diode Array UV-visible spectrophotometer. Fluorescence spectra were recorded on a Spex Fluorolog 1681 0.22 m steady-state fluorometer. Fluorescence quantum yields of BODIPY dyes and polymers were measured in methylene chloride and DMF, and calculated by using fluorescein excited at 490 nm in 0.1 N NaOH as the reference quantum efficiency (φn=85%).^30,31 Molecular weights of the polymers were determined by gel permeation chromatography (GPC) by using a Waters Associates Model 6000A liquid chromatograph. Three American Polymer Standards Corp. Ultrastyragel columns in series with porosity indices of 10^3, 10^4, and 10^5 Å were used and housed in an oven thermostated at 30° C. Mobile phase was HPLC grade THF which was filtered and degassed by vacuum filtration through a 0.5 μm fluoropore filter prior to use. The polymers were detected by a Waters Model 440 ultraviolet absorbance detector at a wavelength of 254 nm and a Waters Model 2410 refractive index detector. Molecular weights were measured relative to polystyrene standards. […]

[2] = Fluorescence lifetime measurement; assay type: physicochemical
Experimental: as §1
^1H NMR and ^13C NMR spectra were taken on a 400 MHz Varian Unity Inova spectrophotometer instrument. ^1H and ^13C NMR spectra were recorded in CDCl3, and chemical shifts (δ) are given in ppm relative to solvent peaks (^1H, δ 7.26; ^13C, δ 77.3) as internal standard. UV spectra were taken on a Hewlett-Packard 8452A Diode Array UV-visible spectrophotometer. Fluorescence spectra were recorded on a Spex Fluorolog 1681 0.22 m steady-state fluorometer. Fluorescence quantum yields of BODIPY dyes and polymers were measured in methylene chloride and calculated by using fluorescein exCIted at 490 nm in 0.1 N NaOH as the reference (quantum effiCIency, cPn=85%). Fluorescence lifetimes were measured on a 010-3300 Nitrogen Laser laserstrobe PTI instrument and analyzed using FeliX32 software. Molecular weights of the polymers were determined by gel permeation chromatography (OPC) by using a Waters AssoCIates model 6000A liquid chromatograph. Three American Polymer Standards Corp. ultrastyragel columns in series with porosity indices of 103, 104, and 105 A were used and housed in an oven thermostatted at 30° C. The mobile phase was HPLC grade THF which was filtered and degassed by vacuum filtration through a 0.5, urn fluoropore filter prior to use. The polymers were detected by a Waters Model 440 ultraviolet absorbance detector at a wavelength of 254 nm and a Waters Model 2410 refractive index detector. Molecular weights were determined relative to polystyrene standards.

[3] = methylene chloride solution (Table 9, Example 13)
[4] = CH2Cl2 solution (Table 2, Example 2)
[5] = CH2Cl2 solution, fluorescein reference (Example 2)
[6] = DMF solution (Table 3, Example 2)
[7] = DMF solution, fluorescein reference (Example 2)
[8] = methylene chloride solution (Table 10, Example 14)
[9] = methylene chloride solution, fluorescein standard (Table 10, Example 14)

Absorption maxima [1, 3] | Emission maxima [1, 3] | Stokes shift [1, 3] | Fluorescence lifetime [2, 3] | Absorption maxima [1, 4] | Emission maxima [1, 4] | Quantum yield [1, 5] | Absorption maxima [1, 6] | Emission maxima [1, 6] | Quantum yield [1, 7] | Absorption maxima [1, 8] | Emission maxima [1, 8] | Quantum yield [1, 9] | Fluorescence lifetime [2, 8] | Quantum yield ([1]; methylene chloride solution, fluorescein standard (Table 9, Example 13)) | SMILES
541 nm | 553 nm | 12 nm | 3.0 ns |  |  |  |  |  |  |  |  |  |  |  | C#CC1=C(C)C2=C(c3cc(OCCCCCCCCCCCC)c(OCCCCCCCCCCCC)c(OCCCCCCCCCCCC)c3)c3c(C)c(C#C)c(C)n3[B-](F)(F)[N+]2=C1C [Compound 6c]
 |  |  |  | 501 nm | 510 nm | 86.7% | 502 nm | 510 nm | 73.8% |  |  |  |  |  | CC1=CC(C)=[N+]2C1=C(c1c(C)cccc1C)c1c(C)cc(C)n1[B-]2(F)F [Compound 18, 4,4-Difluoro-8-(2,6-dimethylphenyl)-1,3,5,7-tetramethyl-4-bora-3a,4a-diaza-s-indacene]
555 nm |  | 15 nm | 4.6 ns |  |  |  |  |  |  | 554 nm | 570 nm | 79% | 5.2 ns |  | CCCCCCCCCCCCOc1ccc(C2=C3C(C)=C(C#C[Si](C)(C)C)C(C)=[N+]3[B-](F)(F)n3c(C)c(C#C[Si](C)(C)C)c(C)c32)cc1OCCCCCCCCCCCC [Compound 5b]
 |  |  |  | 502 nm | 511 nm | 71.5% | 501 nm | 511 nm | 55.3% |  |  |  |  |  | COc1cc(C2=C3C(C)=CC(C)=[N+]3[B-](F)(F)n3c(C)cc(C)c32)cc(OC)c1OC [Compound 9, 4,4-Difluoro-8-(3,4,5-trimethoxyphenyl)-1,3,5,7-tetramethyl-4-bora-3a,4a-diaza-s-indacene]
540 nm | 5.52 nm | 12 nm | 3.9 ns |  |  |  |  |  |  | 539 nm | 553 nm | 67% | 5.9 ns |  | C#CC1=C(C)C2=C(c3ccc(OCCCCCCCCCCCC)c(OCCCCCCCCCCCC)c3)c3c(C)c(C#C)c(C)n3[B-](F)(F)[N+]2=C1C [Compound 6b]
503 nm | 511 nm | 9 nm | 3.2 ns |  |  |  |  |  |  |  |  |  |  |  | CCCCCCCCCCCCOc1cc(C2=C3C(C)=CC(C)=[N+]3[B-](F)(F)n3c(C)cc(C)c32)cc(OCCCCCCCCCCCC)c1OCCCCCCCCCCCC [Compound 3c]
 |  |  |  | 535 nm | 549 nm | 8.64% | 536 nm | 552 nm | 4.4% |  |  |  |  |  | CC1=C(I)C(C)=[N+]2C1=C(c1c(C)cccc1C)c1c(C)c(I)c(C)n1[B-]2(F)F [Compound 19, 4,4-Difluoro-8-(2,6-dimethylphenyl)-2,6-diiodo-1,3,5,7-tetramethyl-4-bora-3a,4a-diaza-s-indacene]
534 nm | 549 nm | 15 nm | 0.15 ns |  |  |  |  |  |  | 534 nm | 549 nm | 5.8% | 0.08 ns | 2.7% | CCCCCCCCCCCCOc1ccc(C2=C3C(C)=C(I)C(C)=[N+]3[B-](F)(F)n3c(C)c(I)c(C)c32)cc1OCCCCCCCCCCCC [Compound 4b]
 |  |  |  | 533 nm | 548 nm | 5.72% | 533 nm | 551 nm | 4.9% |  |  |  |  |  | COc1ccc(C2=C3C(C)=C(I)C(C)=[N+]3[B-](F)(F)n3c(C)c(I)c(C)c32)cc1 [Compound 15, 4,4-Difluoro-8-(4-methoxyphenyl)-2,6-diiodo-1,3,5,7-tetramethyl-4-bora-3a, 4a-diaza-s-indacene]
539 nm | 551 nm | 12 nm | 3.6 ns |  |  |  |  |  |  | 538 nm | 552 nm | 63% | 4.2 ns |  | C#CC1=C(C)C2=C(c3ccc(OCCCCCCCCCCCC)cc3)c3c(C)c(C#C)c(C)n3[B-](F)(F)[N+]2=C1C [Compound 6a]
 |  |  |  | 535 nm | 549 nm | 7.52% | 534 nm | 551 nm | 3.4% |  |  |  |  |  | COc1cc(C2=C3C(C)=C(I)C(C)=[N+]3[B-](F)(F)n3c(C)c(I)c(C)c32)cc(OC)c1OC [Compound 10, 4,4-Difluoro-8-(3,4,5-trimethoxyphenyl)-2,6-diiodo-1,3,5,7-tetramethyl-4-bora-3a,4a-diaza-s-indacene]
501 nm | 509 nm | 8 nm | 3.9 ns |  |  |  |  |  |  | 501 nm | 510 nm | 76% | 3.8 ns |  | CCCCCCCCCCCCOc1ccc(C2=C3C(C)=CC(C)=[N+]3[B-](F)(F)n3c(C)cc(C)c32)cc1 [Compound 3a]
554 nm | 569 nm | 15 nm | 4.4 ns |  |  |  |  |  |  | 553 nm | 569 nm | 71% | 4.5 ns |  | CCCCCCCCCCCCOc1ccc(C2=C3C(C)=C(C#C[Si](C)(C)C)C(C)=[N+]3[B-](F)(F)n3c(C)c(C#C[Si](C)(C)C)c(C)c32)cc1 [Compound 5a]
556 nm | 570 nm | 14 nm | 4.4 ns |  |  |  |  |  |  |  |  |  |  |  | CCCCCCCCCCCCOc1cc(C2=C3C(C)=C(C#C[Si](C)(C)C)C(C)=[N+]3[B-](F)(F)n3c(C)c(C#C[Si](C)(C)C)c(C)c32)cc(OCCCCCCCCCCCC)c1OCCCCCCCCCCCC [Compound 5c]
 |  |  |  | 500 nm | 510 nm | 80.1% | 500 nm | 510 nm | 71.6% |  |  |  |  |  | COc1ccc(C2=C3C(C)=CC(C)=[N+]3[B-](F)(F)n3c(C)cc(C)c32)cc1 [Compound 14, 4,4-Difluoro-8-(4-methoxyphenyl)-1,3,5,7-tetramethyl-4-bora-3a,4a-diaza-s-indacene]
